In patent US8809341B2, “2,4-pyrimidinediamine compounds and uses as anti-proliferative agents” (Rigel Pharmaceuticals, Inc., priority 2003, dated 2014):

What was measured:
A549 cells = experiment: in vitro antiproliferation assay, A549 (lung); type: cell-based; details: in vitro antiproliferation, A549 (lung) cells
Summary of the method: (§1)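 IC50 values came from standard antiproliferation testing in cultured tumour cells; the A549 and H1299 lines are of lung origin.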

H1299 cells = experiment: in vitro antiproliferation assay, H1299 (lung); type: cell-based; details: in vitro antiproliferation, H1299 (lung) cells
Summary of the method: as §1

CCOC(=O)c1cc2cccc(Nc3ncc(F)c(NC4CCC4)n3)c2[nH]1 [compound 678]
IC50 (A549 cells; Table 7): > 20 µM
IC50 (H1299 cells; Table 7): > 20 µM

CNC(=O)COc1cccc(Nc2nc(Nc3ccc(OCCN(C)C)cc3)ncc2F)c1 [compound 694]
IC50 (A549 cells): ≤ 20 µM
IC50 (H1299 cells): ≤ 20 µM

CNC(=O)COc1cccc(Nc2ncc(F)c(Nc3ccc(Cl)c(Cl)c3)n2)c1 [compound 697]
IC50 (A549 cells): ≤ 20 µM
IC50 (H1299 cells): ≤ 20 µM

Fc1cnc(Nc2ccc(C(F)(F)F)cc2)nc1Nc1ccc(C(F)(F)F)cc1 [compound 701]
IC50 (A549 cells): > 20 µM
IC50 (H1299 cells): > 20 µM

COc1ccc(Nc2ncc(F)c(Nc3ccc(OC)cc3)n2)cc1 [compound 702]
IC50 (A549 cells): ≤ 20 µM
IC50 (H1299 cells): ≤ 20 µM

CCOc1ccc(Nc2ncc(F)c(Nc3ccc(OCC)cc3)n2)cc1 [compound 704]
IC50 (A549 cells): ≤ 20 µM
IC50 (H1299 cells): ≤ 20 µM

CCOc1ccc(Nc2ncc(F)c(Nc3ccc(OC)c(OC)c3)n2)cc1 [compound 713]
IC50 (A549 cells): ≤ 20 µM
IC50 (H1299 cells): ≤ 20 µM

CC(C)(C)c1ccc(Nc2ncc(F)c(Nc3ccc(C(C)(C)C)cc3)n2)cc1 [compound 718]
IC50 (A549 cells): > 20 µM
IC50 (H1299 cells): > 20 µM

Fc1ccc(Nc2ncc(F)c(Nc3ccc(F)c(Cl)c3)n2)cc1Cl [compound 719]
IC50 (A549 cells): > 20 µM
IC50 (H1299 cells): > 20 µM

Fc1ccc(Nc2ncc(F)c(Nc3ccc(F)cc3)n2)cc1 [compound 720]
IC50 (A549 cells): ≤ 20 µM
IC50 (H1299 cells): > 20 µM

Cc1ccc(Nc2ncc(F)c(Nc3ccc(C)cc3)n2)cc1 [compound 721]
IC50 (A549 cells): > 20 µM
IC50 (H1299 cells): > 20 µM

COC(=O)COc1cccc(Nc2ncc(F)c(Nc3cccc(OCC(=O)OC)c3)n2)c1 [compound 724]
IC50 (A549 cells): > 20 µM
IC50 (H1299 cells): ≤ 20 µM

CNC(=O)COc1cc(Nc2ncc(F)c(Nc3ccc(C)c(OCC(=O)NC)c3)n2)ccc1C [compound 759]
IC50 (A549 cells): ≤ 20 µM
IC50 (H1299 cells): ≤ 20 µM

COc1cc(Nc2nc(Nc3cccc(O)c3)ncc2F)cc(OC)c1 [compound 768]
IC50 (A549 cells): ≤ 20 µM
IC50 (H1299 cells): ≤ 20 µM

CCOC(=O)COc1cccc(Nc2nc(Nc3cc(OC)cc(OC)c3)ncc2F)c1 [compound 769]
IC50 (A549 cells): > 20 µM
IC50 (H1299 cells): > 20 µM

CCOc1ccc(Nc2nc(Nc3cccc(OCC(=O)NC)c3)ncc2F)cc1 [compound 772]
IC50 (A549 cells): ≤ 20 µM
IC50 (H1299 cells): ≤ 20 µM

Oc1cccc(Nc2nc(Nc3ccc(OC(F)(F)F)c(Cl)c3)ncc2F)c1 [compound 781]
IC50 (A549 cells): ≤ 20 µM
IC50 (H1299 cells): ≤ 20 µM

C=CCNC(=O)COc1cccc(Nc2nc(Nc3cccc(OCC(=O)NC)c3)ncc2F)c1 [compound 791]
IC50 (A549 cells): ≤ 20 µM
IC50 (H1299 cells): ≤ 20 µM

CNC(=O)COc1cc(O)cc(Nc2ncc(F)c(Nc3cccc(O)c3)n2)c1 [compound 797]
IC50 (A549 cells): ≤ 20 µM
IC50 (H1299 cells): > 20 µM

CNC(=O)COc1cc(Nc2ncc(F)c(Nc3cccc(O)c3)n2)cc(OCC(=O)NC)c1 [compound 798]
IC50 (A549 cells): > 20 µM
IC50 (H1299 cells): > 20 µM

COc1ccc(Nc2ncc(F)c(Nc3ccc(OC)c(Cl)c3)n2)cc1Cl [compound 800]
IC50 (A549 cells): ≤ 20 µM
IC50 (H1299 cells): > 20 µM

COc1ccc(Nc2nc(Nc3cc(C)c(OC)c(Cl)c3)ncc2F)cc1Cl [compound 802]
IC50 (A549 cells): > 20 µM
IC50 (H1299 cells): > 20 µM

COc1cc(Nc2ncc(F)c(Nc3ccc(N4CCOCC4)c(Cl)c3)n2)cc(C(F)(F)F)c1 [compound 806]
IC50 (A549 cells): ≤ 20 µM
IC50 (H1299 cells): ≤ 20 µM

COc1ccc(Nc2nc(Nc3cc(Cl)cc(Cl)c3)ncc2F)cc1Cl [compound 808]
IC50 (A549 cells): ≤ 20 µM
IC50 (H1299 cells): ≤ 20 µM

COc1cc(Nc2ncc(F)c(Nc3ccc(OC)c(Cl)c3)n2)cc(C(F)(F)F)c1 [compound 810]
IC50 (A549 cells): ≤ 20 µM
IC50 (H1299 cells): > 20 µM

COc1ccc(Nc2nc(Nc3cc(C)c(C)c(C)c3)ncc2F)cc1Cl [compound 811]
IC50 (A549 cells): ≤ 20 µM
IC50 (H1299 cells): > 20 µM

COc1cc(Nc2ncc(F)c(Nc3cccc(OC(F)(F)F)c3)n2)cc(OC)c1 [compound 812]
IC50 (A549 cells): ≤ 20 µM
IC50 (H1299 cells): ≤ 20 µM

Cc1cc(C)cc(Nc2ncc(F)c(Nc3cccc(OC(F)(F)F)c3)n2)c1 [compound 813]
IC50 (A549 cells): > 20 µM
IC50 (H1299 cells): > 20 µM

COc1cc(Nc2ncc(F)c(Nc3cc(C)cc(C)c3)n2)cc(OC)c1 [compound 814]
IC50 (A549 cells): ≤ 20 µM
IC50 (H1299 cells): ≤ 20 µM

COc1cc(Nc2ncc(F)c(Nc3cc(C)cc(C)c3)n2)cc(C(F)(F)F)c1 [compound 815]
IC50 (A549 cells): ≤ 20 µM
IC50 (H1299 cells): ≤ 20 µM

Cc1cc(C)cc(Nc2nc(Nc3cc(C)cc(C(F)(F)F)c3)ncc2F)c1 [compound 816]
IC50 (A549 cells): ≤ 20 µM
IC50 (H1299 cells): > 20 µM

COc1cc(Nc2nc(Nc3cc(C)cc(C)c3)ncc2F)cc(C(F)(F)F)c1 [compound 817]
IC50 (A549 cells): ≤ 20 µM
IC50 (H1299 cells): ≤ 20 µM

COc1cc(Nc2ncc(F)c(Nc3cc(OC)cc(C(F)(F)F)c3)n2)cc(OC)c1 [compound 818]
IC50 (A549 cells): ≤ 20 µM
IC50 (H1299 cells): ≤ 20 µM

COc1cc(Nc2ncc(F)c(Nc3cc(OC)cc(C(F)(F)F)c3)n2)cc(C(F)(F)F)c1 [compound 819]
IC50 (A549 cells): ≤ 20 µM
IC50 (H1299 cells): ≤ 20 µM

COc1cc(Nc2nc(Nc3cc(C)cc(C(F)(F)F)c3)ncc2F)cc(C(F)(F)F)c1 [compound 820]
IC50 (A549 cells): > 20 µM
IC50 (H1299 cells): ≤ 20 µM

COc1cc(Nc2nc(Nc3cc(OC)c(OC)c(OC)c3)ncc2F)cc(C(F)(F)F)c1 [compound 821]
IC50 (A549 cells): ≤ 20 µM
IC50 (H1299 cells): ≤ 20 µM

COc1cc(Nc2nc(Nc3cc(C)c(O)c(Cl)c3)ncc2F)cc(C(F)(F)F)c1 [compound 822]
IC50 (A549 cells): ≤ 20 µM
IC50 (H1299 cells): ≤ 20 µM

COc1cc(Nc2nc(Nc3cc(Cl)cc(Cl)c3)ncc2F)cc(C(F)(F)F)c1 [compound 823]
IC50 (A549 cells): ≤ 20 µM
IC50 (H1299 cells): ≤ 20 µM

COc1cc(Nc2nc(Nc3cc(CO)cc(CO)c3)ncc2F)cc(C(F)(F)F)c1 [compound 824]
IC50 (A549 cells): ≤ 20 µM
IC50 (H1299 cells): < 20 µM

COc1cc(Nc2nc(Nc3cc(C)c(Cl)c(C)c3)ncc2F)cc(C(F)(F)F)c1 [compound 825]
IC50 (A549 cells): ≤ 20 µM
IC50 (H1299 cells): ≤ 20 µM

COc1ccc(Nc2nc(Nc3cc(Cl)c(O)c(Cl)c3)ncc2F)cc1Cl [compound 828]
IC50 (A549 cells): ≤ 20 µM
IC50 (H1299 cells): ≤ 20 µM

Oc1c(Cl)cc(Nc2ncc(F)c(Nc3ccc(OC(F)(F)F)c(Cl)c3)n2)cc1Cl [compound 829]
IC50 (A549 cells): ≤ 20 µM
IC50 (H1299 cells): ≤ 20 µM

COc1ccc(Nc2nc(Nc3cc(Cl)c(OC)c(Cl)c3)ncc2F)cc1Cl [compound 831]
IC50 (A549 cells): > 20 µM
IC50 (H1299 cells): > 20 µM

COc1c(Cl)cc(Nc2ncc(F)c(Nc3ccc(OC(F)(F)F)c(Cl)c3)n2)cc1Cl [compound 832]
IC50 (A549 cells): ≤ 20 µM
IC50 (H1299 cells): > 20 µM

COc1c(Cl)cc(Nc2ncc(F)c(Nc3ccc(Cl)c(Cl)c3)n2)cc1Cl [compound 834]
IC50 (A549 cells): ≤ 20 µM
IC50 (H1299 cells): ≤ 20 µM

COc1cc(Nc2nc(Nc3cc(CO)cc(CO)c3)ncc2F)cc(OC)c1 [compound 842]
IC50 (A549 cells): ≤ 20 µM
IC50 (H1299 cells): ≤ 20 µM

COc1ccc(Nc2nc(Nc3cc(CO)cc(CO)c3)ncc2F)cc1Cl [compound 843]
IC50 (A549 cells): ≤ 20 µM
IC50 (H1299 cells): ≤ 20 µM

OCc1cc(CO)cc(Nc2ncc(F)c(Nc3ccc(Cl)c(Cl)c3)n2)c1 [compound 844]
IC50 (A549 cells): ≤ 20 µM
IC50 (H1299 cells): ≤ 20 µM

COc1cc(Nc2nc(Nc3cc(OC)cc(C(F)(F)F)c3)ncc2F)cc(OC)c1 [compound 849]
IC50 (A549 cells): ≤ 20 µM
IC50 (H1299 cells): ≤ 20 µM

CNC(=O)COc1cccc(Nc2ncc(F)c(N(C)c3cc(OC)cc(OC)c3)n2)c1 [compound 850]
IC50 (A549 cells): > 20 µM
IC50 (H1299 cells): > 20 µM

COc1cc(Nc2ncc(F)c(N(C)c3cc(OC)cc(OC)c3)n2)cc(OC)c1 [compound 852]
IC50 (A549 cells): ≤ 20 µM
IC50 (H1299 cells): ≤ 20 µM
